In one data set the test system is PANC-1 cells. As to the kind of experiment: MTT cell proliferation assay, PANC-1. The conditions noted are these: Homo sapiens, PANC-1, 48 h treatment in FBS-free medium, read-out: IC50 Value (Mean ± SD mM) PANC-1. The format is cell-based. The method, then: (§1) PC-3, LNCaP, RWPE-1, HepG2, A549, and PANC-1 cells were purchased from the National Collection of Authenticated Cell Cultures (Shanghai, China). […] All the above cell cultures were supplied with 10% fetal bovine serum and 1% penicillin-streptomycin. RWPE-1 cells were cultured in keratinocyte serum-free medium (K-SFM, Gibco, New York, NY, USA) supplemented with 50 mg/L bovine pituitary extract and 5 μg/L epidermal growth factor (EGF). All cell lines were grown in a humidified atmosphere of 5% CO2 at 37 °C.
(§2) Cells were seeded in 100 μL complete medium in a 96-well plate, at a density of 10,000 cells/well for LNCaP and 5000 cells/well for other cells. Cells were pre-incubated for 24 h to allow for adherence before removal of complete medium and treatment with various concentrations of compounds in fetal bovine serum (FBS)-free medium for 48 h. After treatment, 20 μL/well MTT (5 mg/mL) was added and incubated for 3–4 h at 37 °C, and then 100 μL/well DMSO was added for MTT assay. The plate was shaken on an orbital shaker for 10 min. Absorbance was measured using a microplate reader at 492 nm for the MTT assay (performed in triplicates). Cell viability was normalized to control. Half inhibitory concentration (IC50) was calculated by SPSS Statistics 17.0. […] The experiments were independently repeated two to three times.
A general note: Formazan colour is commonly taken as a measure of viable cells.

The conditions of data set [1]: mice; cited from earlier work.
Data set [2] can be described thus: UPLC-HRMS detection of tryptamine in serum or tissue samples of xenograft mice. In kind it is in vivo, BALB/c nude mice. Here is the method:
However, intraperitoneal injection of tryptamine promoted the growth of PC-3 xenograft tumors in nude mice. […] Additionally, it has been reported that the intraperitoneal injections of 10 mg/kg 5-HT increased tumor weight by almost 60% using an orthotopic mouse model of ovarian cancer. As is known, both 5-HT and tryptamine in the blood can be taken up and carried by platelets and released during degranulation, and also various tryptamine-related compounds are substrates of the platelet 5-HT transporter. Thus, the tumor growth promoting effect of intraperitoneal treatment of tryptamine in our study might be similar to the effect of 5-HT, which has long been thought to be related to tumor progression.

In data set [3] the test system is PC-3 cells. As to the kind of experiment: UPLC-HRMS cell metabolomics of tryptamine-treated PC-3 cells. The format is cell-based, human. Here is the method:
The cells were seeded in 10 cm Petri dishes at a density of 1 × 10^6 cells/dish. After incubation overnight for adherence, cells were subjected to treatment with tryptamine (0.3 mM) in FBS-free medium, and control samples were treated with FBS-free medium. […] For cellular metabolite extraction, cells were first washed with PBS for three times, then 8 mL extraction solvent (methanol: acetonitrile: 0.5 M formic acid, 2:2:1 v/v/v) was added for quenching and cell lysis. The mixture was vortexed and sonicated on ice for 15 min to extract metabolites, and then centrifuged at 13,000 rpm for 10 min at 4 °C. The supernatant was collected and dried under vacuum. Before analysis, the sample was reconstituted in 100 μL H2O.
The chromatographic method involved elution with water with 0.1% acetic acid (A) and acetonitrile (B). The gradient program of cell metabolomics was as follows: 0–1 min 98–99% A, 1–3 min 2–30% A, 3–8 min 30–50% A, 8–10 min 50–95% A, 10–15 min 95–95% A. The flow rate was constant at 0.3 mL/min. […] The column was maintained at 35 °C. After each run, the gradient was re-equilibrated to its initial conditions over 6 min. Sample injection volume was 10 μL. The main mass spectrometer parameters were set as follows: capillary temperature 300 °C; capillary voltage and tube lens 20 V and 35 V, respectively, for positive mode, and 40 V and 80 V, respectively, for negative mode; spray voltage 4.0 kV in positive mode, and 2.5 kV and 2.8 kV in negative mode for serum and cell metabolite profiling, respectively; auxiliary gas, sheath gas and sweep gas flow rate 10, 40, and 0 arbitrary units, respectively. Data were acquired in the m/z range of 50–1000. The resolving power was 60,000 at m/z 195. Ultra-high-purity argon (≥99.999%) was used as the collision gas in UPLC–MS/MS experiments, and normalized collision voltages were in the range of 15–55 V.
Raw data was pre-processed using Progenesis QI software version 2.4 (Nonlinear Dynamics, Waters Corporation, Milford, CT, USA), which included peak picking and alignment. A data matrix table containing metabolic peak identity (retention time (Rt and m/z pair)) and peak abundances in samples was obtained. We used our previously designed FORTRAN program for data post-processing, including analyses of adducts, in-source fragments and chloride isotopic ions, contaminant and artefact ion removal, QC-based scaling, and normalization. Principal components analysis (PCA) and oPLS-DA (orthogonal partial least squares-discriminant analysis) were applied for sample classification using the PLS Toolbox software (version 8.9.1, Eigenvector Research, Inc., Manson, WA, USA) based on Matlab R2021a (version 9.10.0, MathWorks, Natick, MA, USA). Differential metabolites were identified with p-value < 0.05 and variance importance in projection (VIP) value greater than 1. The metabolites were identified based on accurate mass matching to theoretical values within a 2 mDa tolerance and MS/MS matching with spectral data in Human Metabolome Database (HMDB) and/or manual analysis of MS/MS spectra (Figure S4). MetaboAnalyst 5.0 was used for metabolic pathway and network analyses.

In data set [4] the test system is PC-3 cells. Kind of data set: Annexin V-FITC/PI flow cytometry apoptosis assay. The format is cell-based, human. The note with it: 24 h. The method, then: Cell apoptosis was assessed by Annexin V-FITC and propidium iodide (PI) staining using an Annexin V-FITC apoptosis detection kit (Thermo Fisher Scientific, Carlsbad, CA, USA) according to the manufacturer’s instructions. Briefly, cells were seeded at a density of 1.0 × 10^5 cells/well and pre-incubated for 24 h to allow for adherence before treatment with various concentrations of tryptamine in an FBS-free medium. After 24 h of tryptamine incubation, cells in each well were harvested and centrifuged at 200× g for 5 min. Cells were washed with PBS and centrifuged at 200× g for 5 min. Cells were resuspended in 100 μL binding buffer, followed by staining with 5 μL Annexin V-FITC and 5 μL PI, and incubation on ice in the dark for 15 min after addition of each staining reagent. Subsequently, a 300 μL binding buffer was added to the sample and apoptotic cells were detected by a flow cytometer (NovoCyte; ACEA Biosciences Inc., San Diego, CA, USA).
A general note: Flow cytometry measures light scatter and fluorescence of single cells or particles in a stream.

For the next data set, the system named is A549 cells. Kind of data set: MTT cell proliferation assay, A549. In kind it is cell-based. The conditions noted are these: Homo sapiens, A549, 48 h treatment in FBS-free medium, read-out: IC50 Value (Mean ± SD mM) A549. Here is the method: as §1, §2
Where [5] appears, read: 0.3 mM, treatment/control ratio, negative = decreased.

One may read the IC50 as the concentration that inhibits the measured activity by half. For `NCCc1c[nH]c2ccccc12` [Tryptamine], the IC50 in the data set on PANC-1 cells is 0.38 ± 0.01 mM. For the same molecule, the “median lethal dose (LD50)” value in data set [1] is ~ 200 mg/kg. Also, in data set [2] (intraperitoneal treatment group), the “tryptamine in serum or tissue samples” value is on record as “not detected”. In addition, the “tryptamine in tissue samples” value in data set [2] (intratumoral treatment group) is “apparent peak”. Further, in the data set with PC-3 cells [3] (0.3 mM, treatment/control ratio), the “Fold Change of ketoleucine” value is 0. In addition, in the data set on PC-3 cells [3] (setting [5]), the “Fold Change of arginine” value is reported as −1.9, the “Fold Change of aspartic acid” value is −3.2, the “Fold Change of creatine” value is reported as −2.0 and the “Fold Change of pantothenic acid” value is reported as −1.6. Further, in the data set on PC-3 cells [3] (setting [5]), the “Fold Change of proline” value is given as −2.0, the “Fold Change of spermidine” value was −2.1 and the “Fold Change of spermine” value is reported as −2.1. The “Fold Change of 5-HT” value in the data set on PC-3 cells [3] (0.3 mM, treatment/control ratio, positive = increased) is on record as 1.4 × 10^3. Further, the “aspartic acid, fold decrease compared to the control group” value with PC-3 cells [3] (tryptamine treated group) came to 3.2 fold. In the data set with PC-3 cells [4] (PC-3, 0.2 mM), the “apoptotic cell populations (early and late apoptosis)” value was determined as 12.1%. Further, the “apoptotic cell populations (early and late apoptosis)” value with PC-3 cells [4] (PC-3, 0.3 mM) is 21.4%. Besides, in the data set on A549 cells, the half-inhibitory concentration (IC50) is 0.46 ± 0.01 mM.

(Values after PMC9569450, “Dual Effect of Tryptamine on Prostate Cancer Cell Growth Regulation: A Pilot Study” (International Journal of Molecular Sciences, 2022).)
